Where a name gives a salt, the structure may show the parent alone.
Columns and labels:
[1] = Water content by Karl Fisher titration; assay type: physicochemical; details: Example 11 sample
Experimental: The water of hydration content is measured by the Karl Fischer method which is well known in the art and is described in the 1990 US Pharmacopoeia at pages 1619-1621, and the European Pharmacopoeia, second edition (1992) part 2, sixteenth fascicule at v. 3.5-6.1. Water content (by Karl Fisher titration): 0.61% w/w

[2] = Thermogravimetric analysis (TGA); assay type: physicochemical; details: from 182-310° C.; scan rate 10° C. per minute
Experimental: Thermogravimetric analysis was carried out on a Perkin-Elmer Pyris-1 TGA system. Scan rate of 10° C. per minute. Sample size 3.757 mg. The TGA trace is provided at FIG. 6.

[3] = Stability and hygroscopicity of the crystal form (stated, no method); assay type: physicochemical; details: statement in words
[4] = relative to acyclovir; statement in words; cited from earlier work

SMILES | Water content (by Karl Fisher titration) [1] | Weight loss associated with melting/decomposition [2] | Hygroscopicity [3] | Stability of the crystal form [3] | Bioavailability [4]
CC(C)[C@H](N)C(=O)OCCOCn1cnc2c(=O)[nH]c(N)nc21 [Form 2 Valaciclovir Hydrochloride, valaciclovir hydrochloride] | 0.61 % w/w | 42.97 % w/w | essentially non-hygroscopic | stable | 
CC(C)[C@H](N)C(=O)OCCOCn1cnc2c(=O)[nH]c(N)nc21 [valaciclovir] |  |  |  |  | much improved bioavailability

Source: patent publication US20040197396A1, “Anhydrous crystal form of valaciclovir hydrochloride” (priority 2001, published 2004)
